Experimental data from patent US20250179481A1, “COMPOSITIONS AND METHODS FOR TARGETING, EDITING, OR MODIFYING GENES” (Celyntra Therapeutics SA, priority 2021, published 2025).

Tests used:
AAVS1 = experiment: CAR insertion efficiency at AAVS1 in primary T-cells; type: cell-based, human
Experimental: T-cells were isolated from human peripheral blood obtained from healthy adults by immune-magnetic negative selection using the EasySep Human T-cell Isolation Kit ([sequence] Technologies). After isolation, T-cells were activated in 25 μL mL^−1 ImmunoCult Human CD3/CD28/CD2 T-Cell Activator ([sequence] Technologies) in ImmunoCult-XF T-Cell Expansion Medium ([sequence] Technologies) containing 12.5 ng mL^−1 Human Recombinant IL-2, 5 ng mL^−1 IL-7, and 5 ng mL^−1 IL-15 ([sequence] Technologies) and seeded at 1.0×10^6 cells mL^−1. Until transfection 48 hours later, the cells were cultured at 37° C., in 5% CO2 incubators.
Ribonucleoprotein complexes (RNPs) were generated by incubating respective guide nucleic acids (gNAs) with MAD7 in the molar ratio of 3:2 gNA: MAD7 for 15 minutes at room temperature immediately before transfection.
Donor templates comprising site-specific homology arms, respective promoter, and respective gene (GFP or Hu19 scFv-CD8a-CD28-CD3ζ CAR) were amplified from corresponding pTwist Ampicillin high-copy plasmids (Twist Bioscience) using homology arms-specific PCR primers. […] Purified HDR templates were collected and quantified on NanoDrop One Microvolume UV-Vis Spectrophotometer (ThermoFisher Scientific). […] HDR templates were collected, diluted, and concentrations quantified using Qubit dsDNA HS Assay Kit (ThermoFisher Scientific). […]

primary Pan-T donors = conditions: primary Pan-T cells, RNP + ssODN, M3814 for 24 hours after transfection
Experimental: The targeted ssODN template (Table 11) was transfected with RNPs in three primary Pan-T donors. Cell pools were harvested post recovery for genotypic evaluation (i.e. modification incorporation via NGS) and also functional analysis (FACS staining).
Conditions were the same as Example 1, and in addition after transfection the cells were treated with the HDR enhancer M3814 for 24 hours to block the NHEJ pathway and 5 thereby increase the incorporation of the ssODN at the on-target side.

[1] = tested on: predicted off-target sites; experiment: INDEL frequency at predicted off-target sites (CasOFFinder, targeted deep sequencing) in Jurkat cells; type: cell-based, human; conditions: crPDCD1: <=4 mismatches, remaining gNAs <=3 mismatches, vs MOCK, Pairwise T-test
Experimental: Another consideration for selecting gNAs is the potential for off-target cleavage events. The list of validated gNAs was analyzed using the CasOFFinder software to predict potential off-target editing sites in the genome with up to four mismatches between the gNA and the target DNA sequence. Using the Bioconductor R packages, the predicted off-target sites were matched with the human gene database, and those sites that targeted exons and introns within the genes were extracted. Afterwards, the degree of editing activity at these sites was examined by targeted next-generation sequencing, more specifically, at 25 predicted off-target sites for the top-two PDCD1 gNAs, i.e., crPDCD1_1 and crPDCD1_2. […] INDEL frequency at 43 putative off-target sites with up to three mismatches between gNA and target DNA sequence were assayed for the top-two gNAs targeting seven remaining genes (i.e., TIM3, LAG3, TIG1T, CTLA4, PTPN6, PTPN11, and CD247; spacer sequences in Table 5). […] Specifically. FIGS. 18-19 show INDEL frequency of MAD7 (n=3; Mean±SD) in T-cell leukemic cell line at predicted off-target sites analyzed by targeted deep sequencing. For crPDCD1. INDEL frequency was analyzed at the putative off-target editing sites with ≤4 mismatches between the gNA and target DNA sequence, and with ≤3 mismatches on the remaining gNAs.

PDCD1 protein = experiment: Surface expression of the PDCD1 protein by flow cytometry in Jurkat cells; type: cell-based, human; conditions: flow cytometry 4, 7 and 11 days post-transfection, crPDCD1_2 value at day 4, same at day 11
Experimental: For detection of PDCD1 knock-out efficiency, approx. 250,000 Jurkat cells per sample were transferred onto 96-well V-bottom cell culture plates and assessed following a series of consecutive washing and staining steps. The first step included centrifuging the cells at 300 g for 5 minutes at 4° C., and discarding the supernatant. Afterwards, the cells were stained using 100 μL Cell Staining Buffer (Biolegend) with APC/Cyanine7 anti-human CD279 (PD-1) antibody (1:100: Biolegend) and incubated for 30 minutes at 4° C., in the dark. The cells were then centrifuged at 300 g for 5 minutes at 4° C., and the supernatant discarded. The next step included two repeats of centrifugation at 300 g for 5 minutes at 4° C., supernatant removal, and cell washing in 150 μL ice-cold Cell Staining Buffer (Biolegend). In the final step, the cells were re-suspended in 100 μL Cell Staining Buffer for the flow cytometry measurements (excitation: red laser; emission: […]).
(§1) High-efficiency gNAs identified in our initial analysis were validated by assaying INDEL frequency for the top three or five gNAs for each of the selected immunologically relevant genes (FIG. 15). […] Alternating grey and white zones on the plot represent groups of three to five high-efficiency gNAs per locus. […] Using the CRISPresso2 software, the degree of open reading frame (ORF) disruption for each of the validated gNAs was estimated (FIG. 15). In addition, for four high-efficiency gNAs targeting three different exons at the PDCD1 locus, surface expression of the PDCD1 protein was measured by flow cytometry 4, 7, and 11 days post-transfection (data not shown).

TIM3 = experiment: gNA validation: frameshift (ORF disruption) frequency, TIM3; type: cell-based, human; conditions: Jurkat, CRISPResso2 ORF analysis
Experimental: Initial quality assessment of the obtained reads was performed with FastQC36. The sequencing data were aligned and analyzed with the CRISPResso2 software, using CRISPRessoBatch command with the parameters—cleavage_offset 1—quantification_window_size 10—quantification_window_center 1—expand_ambiguous_alignments for the INDEL frequency analysis. For the ORF disruption analysis, CRISPRessoBatch command with the parameters—cleavage_offset 1—coding_seq <EXON_SEQ>—quantification_window_size 0—quantification_window_center 1—expand_ambiguous_alignments was used. Modification rates from the CRISPResso2 software output were analyzed in Excel.
as §1
Average fraction of INDELs leading to frameshifts (dashed line) is approx. 66%. […]

CSF2 [2] = experiment: Cutting efficiency by Amplicon-NGS in Jurkat cells, CSF2; type: cell-based, human
Text: (§2) T-cells were isolated […] buffy coats and nucleofected after two days. The buffy coats were procured from the Rigshospitalet in Copenhagen, Denmark. The Pan-T cells were enriched by negative selection using an Easy Sep Human T-cell Isolation Kit from StemCell Technologies. The RNPs were formed by mixing gRNAs with Art-Mad7mam+ prior to nucleofection with Jurkat or T-cells. In some cases, synthetic ssODNs (Table 11) with a length of 200 nt were included in the transfections to evaluate impact on frame shift mutation rates by HDR rather than relying on NHEJ alone in an effort to maximize functional disruption. The ssODNs were designed to comprise a deletion of the spacer and PAM sequence thereby resulting in a programmed frame shift. After transfection, the cells were cultivated and assayed for the different readouts. The nucleofection with dual gRNAs followed a similar protocol, but with minor differences in pre-assembling of the gRNAs. Briefly, the two dual RNAs (modulator and targeter) are combined in a molecular ratio of 1:1 (400 μM Modulator
At the genome level, Amplicon-NGS was used to determine the type and mutation frequency at the on-target site. The Amplicon-NGS assay is based on the amplification of the on-target site using specific primer pairs. […] Crispresso aligns the sequencing reads to the reference amplicon and analyzes the mutation type and frequency −/+10 nt at the putative cut site of Art-Mad7mam+ based on the provided gRNA sequence. […]
The cutting efficiency was calculated as the percentage of reads with any NHEJ modification (including insertions, deletions, and/or substitutions) of the total number of reads that were aligned to the reference amplicon. […]
The top gRNAs identified in the tiling experiments in, were further tested by performing additional nucleofections in Jurkat cells and measuring viability, INDEL formation by amplicon-NGS, and functional flow cytometry assays. […] For the Amplicon-NGS readout three days after transfection, genomic DNA was prepared, amplicons generated, and sequence analyzed. […]

CSF2 [3] = experiment: On-target Amplicon-NGS in Pan T-cells, CSF2; type: cell-based, human
Text: as §2
At the genome level, Amplicon-NGS was used to determine the type and mutation frequency at the on-target site. The Amplicon-NGS assay is based on the amplification of the on-target site using specific primer pairs. The primers are designed to have the predicted cutting site at the center and a length of 180-280 nt. The amplicons are indexed for NGS and sequenced on an Illumina MiSeq system. The analysis was performed using the Crispresso script. Crispresso requires the input of a configuration file comprised of the specific gRNA sequence, primer sequences and the theoretical amplicon that is based on the alignment of the primer pair to the reference human genome GRCh38. In addition, for HDR analysis associated with ssODN-programmable editing a reference sequence with the specific mutations can be input into the configuration file. Crispresso aligns the sequencing reads to the reference amplicon and analyzes the mutation type and frequency −/+10 nt at the putative cut site of Art-Mad7mam+ based on the provided gRNA sequence. As output, Crispresso delivers different mutation types and their frequencies: Substitutions, INDELs, HDR Unmodified, HDR INDELs, HDR+substitutions.
To further test the effects of ssODNs, single and dual gRNAs were mixed with Art-MAD7mam+ nuclease, and in some cases included a ssODN designed to create a programmed disruption in the target gene. The freshly isolated Pan-T cells were activated and cultured for 2 days, and RNPs−/+ssODNs were transfected using the Lonza 96-well plate shuttle. […]

CSF2 [4] = experiment: Functional KO in Pan T-cells: intracellular CSF2 staining after PMA and Ionomycin; type: cell-based, human
Experimental: Protein expression for targeted genes was measured by antibody staining against the target protein to quantify functional disruption of the target gene. The efficiency of functional disruption was verified by antibody staining and quantified as the negative cell population by flow cytometry. TRBC, CD3E and CD40LG are located at the cell surface and living cells were stained with the corresponding antibodies. Since CSF2 is a secreted protein, cells were first activated, secretion was blocked, cells were fixed with formaldehyde, and permeabilized before the staining procedure. Given CD40LG and CSF2 are expressed upon stimulation of primary T-cells, cells were activated first to enhance their expression. The induction of CD40LG and CSF2 was achieved using anti-CD3/CD28 and PMA/Ionomycin, respectively.
The best CSF2 gRNA was identified as gCSF2_007 in the Jurkat experiment. In Pan T-cells, the cutting efficiency was approximately 65% and 45% and could be increased by ssODN inclusion to ˜80 and 70% for the regular and STAR design, respectively (FIG. 33E). […] The cells were treated with PMA and Ionomycin to strongly activate the cells and blocked the secretion of the protein with Golgiplug and Golgistop and stained the cells after fixation and permeabilization for the intracellular accumulated CSF2 proteins.

COc1ccc([C@@H](O)c2cc(-c3ncnc4cc(N5CCOCC5)ccc34)c(F)cc2Cl)nn1 [M3814]
more efficient CAR insertion than other experiments (AAVS1): ~5 times
increase in perfect HDR (primary Pan-T donors): 1.5 fold

crPDCD1_1: top-two PDCD1 gNA (guide GCACGAAGCTCTCCGATGTGT; spacer only, further chemistry not given here)
INDEL frequency at predicted off-target sites [1]: No significant INDEL frequency

crPDCD1_2: gNA targeting the PDCD1 gene at the extracellular domain of the protein (guide TCTGCAGGGACAATAGGAGCC; spacer only, further chemistry not given here)
surface expression of the PDCD1 protein (PDCD1 protein): 10%
INDEL frequency at predicted off-target sites [1]: low-level off-target activity

crTIM3_1: validated high-efficiency gNA, TIM3 (guide CTTGTAAGTAGTAGCAGCAGC; spacer only, further chemistry not given here)
frameshifts frequency (fraction of frameshift to INDEL) (TIM3): 23%

crTIM3_3: validated high-efficiency gNA, TIM3 (guide TAAGTAGTAGCAGCAGCAGCA; spacer only, further chemistry not given here)
frameshifts frequency (fraction of frameshift to INDEL) (TIM3): 44%

gCSF2_007: best CSF2 gRNA; dual form Targeter_CSF2_007 UUGUAGAUCACAGGAGCCGACCUGCCUAC (synthetic gRNA ordered from IDT, chemistry not given here)
Average on-target editing efficiency (CSF2 [2]; CSF2 gRNAs, Jurkat cells, Amplicon-NGS): 31.1
Total score (CSF2 [2]; CSF2 gRNAs, combines on-target editing efficiency and predicted off-target score): 30.7
cutting efficiency (rank among the three CSF2 gRNAs) (CSF2 [2]; Jurkat verification): highest
cutting efficiency (CSF2 [3]; STAR design): ~45%
cutting efficiency (CSF2 [3]; STAR design, ssODN inclusion): ~70%
cutting efficiency (CSF2 [3]; regular design): approximately 65%
cutting efficiency (CSF2 [3]; regular design, ssODN inclusion): ~80%
negative CSF2 cell population (CSF2 [4]; dual gRNA): ~60%
negative CSF2 cell population (CSF2 [4]; dual gRNA with the ssODN): ~80%
negative CSF2 cell population (CSF2 [4]; regular gRNA with the ssODN): ~90%
negative CSF2 cell population (CSF2 [4]; regular gRNA, 70% of control cells CSF2 positive): ~75%

poly-L-glutamic acid [PGA]
CAR insertion efficiency, treatment with PGA compared to without PGA (AAVS1; primary T-cells, P<=0.05, data not shown): higher
